Reference: patent US20260226102A1, “PEPTIDES FOR INCRETIN SYNTHESIS” (priority 2022, published 2026)
Where a name gives a salt, the structure may show the parent alone. Read-outs that look alike come from different tables or passages of the source. Square brackets hold non-standard residues; d marks the D form. Peptide text beside a SMILES is read from it. * marks the point of attachment. Boc = CC(C)(C)OC(=O)*; Aib = CC(C)(N)C(=O)O; OcHex = C1CCC(O*)CC1; OBn = c1ccc(CO*)cc1; OtBu = CC(C)(C)O*; tBu = CC(C)(C)*; OAll = C=CCO*

Assays:
[1] = standing 24 hours or more
Experimental: Peptide samples were screened for crystal stability in several organic solvents. […] The following organic solvents were used for the study: Acetone, ACN, MeOH, EtOH, IPA, BuOH, EtOAc, MTBE, THF, MEK, toluene, and water.
30 mg samples of each peptide tetramer were dispensed into sample vials using an automated dispenser (one vial of each peptide for testing with each solvent). […] Samples were then allowed to stand for 24 hours or more.

[2] = Physical stability of crystalline solid form on isolation/drying (XRPD); format: physicochemical; conditions: for physical stability of the crystalline form: during isolation or upon air-drying/drying
[3] = Dynamic vapor sorption (DVS) analysis of hygroscopicity; format: physicochemical
From the text: Crystallization of Y-Aib-E-G helps to reject impurities from the crude material. […] Crystallization of the crude Y-Aib-E-G spiked with 1% dimer (impurity) yielded a crystalline Y-Aib-E-G with almost complete rejection of the dimer. Crystallization also improves physical properties, for example, the hygroscopicity.

Row | Crystal Formed ([1]; solvent ACN) | Crystal Formed ([1]; solvent Acetone) | Crystal Formed ([1]; solvent BuOH) | Crystal Formed ([1]; solvent EtOAc) | Crystal Formed ([1]; solvent EtOH) | Crystal Formed ([1]; solvent H2O) | Crystal Formed ([1]; solvent IPA) | Crystal Formed ([1]; solvent MEK) | Crystal Formed ([1]; solvent MTBE) | Crystal Formed ([1]; solvent MeOH) | Crystal Formed ([1]; solvent THF) | Crystal Formed ([1]; solvent toluene) | physical stability of the crystalline form after vacuum drying ([2]; vacuum drying at 32-33° C. for 1 day) | wt % gain in sorption from 0% to 95% RH [3] | Structure (SMILES) | physical stability of the crystalline form [2]
1 | No | No | No | Yes | No | No | No | Yes | Yes | No | No | No | – | – | C=CCOC(=O)CCC(NC(=O)C(C)(C)NC(=O)C(Cc1ccc(OC(C)(C)C)cc1)NC(=O)OC(C)(C)C)C(=O)NCC(=O)O (stereo not drawn) [Boc—Y(tBu)-Aib-E(All)-G-COOH, Boc-Y(tBu)-Aib-E(All)-G-COOH] (Boc-Y(tBu)[Aib]E(OAll)G-OH; configuration not given here) | –
2 | Yes | Yes | No | Yes | No | No | No | Yes | Yes | No | Yes | Yes | – | – | CC(C)(C)OC(=O)N[C@@H](Cc1ccc(OC(C)(C)C)cc1)C(=O)NC(C)(C)C(=O)N[C@@H](CCC(=O)OCc1ccccc1)C(=O)NCC(=O)O [Boc—Y(tBu)-Aib-E(Bzl)-G-COOH, Boc-Y(tBu)-Aib-E(Bzl)-G-COOH] (Boc-Y(tBu)[Aib]E(OBn)G-OH) | –
3 | No | No | No | No | No | No | No | No | Yes | No | No | No | – | – | COC(=O)CCC(NC(=O)C(C)(C)NC(=O)C(Cc1ccc(OC(C)(C)C)cc1)NC(=O)OC(C)(C)C)C(=O)NCC(=O)O (stereo not drawn) [Boc—Y(tBu)-Aib-E(Me)-G-COOH, Boc-Y(tBu)-Aib-E(Me)-G-COOH] (Boc-Y(tBu)[Aib]E(OMe)G-OH; configuration not given here) | –
4 | – | – | – | – | – | – | – | – | – | – | – | – | – | – | CC(C)(C)OC[C@H](NC(=O)[C@H](COC(C)(C)C)NC(=O)[C@@H]1CCCN1C(=O)CN)C(=O)NCC(N)=O [G-P-S-S-G-NH2 Form A, Gly-Pro-Ser(tBu)-Ser(tBu)-Gly-NH2] (H-GPS(tBu)S(tBu)G-NH2) | physically is not stable and converts to Form B easily
5 | – | – | – | – | – | – | – | – | – | – | – | – | remained as Form B | – | CC(C)(C)OC[C@H](NC(=O)[C@H](COC(C)(C)C)NC(=O)[C@@H]1CCCN1C(=O)CN)C(=O)NCC(N)=O [G-P-S-S-G-NH2 Form B, Gly-Pro-Ser(tBu)-Ser(tBu)-Gly-NH2] (H-GPS(tBu)S(tBu)G-NH2) | –
6 | – | – | – | – | – | – | – | – | – | – | – | – | – | – | CC(C)(C)OC(=O)NC(Cc1cn(-c2ccc([N+](=O)[O-])cc2[N+](=O)[O-])cn1)C(=O)NC(C)(C)C(=O)NC(CCC(=O)NC(c1ccccc1)(c1ccccc1)c1ccccc1)C(=O)NCC(=O)O (stereo not drawn) [H(DNP)-Aib-Q-G Form A, (Boc)-His(dnp)-Aib-Gln(trt)-Gly] | converts to H(DNP)-Aib-Q-G Form C easily
7 | – | – | – | – | – | – | – | – | – | – | – | – | – | – | C[C@H](N)C(=O)N1CCC[C@H]1C(=O)N1CCC[C@H]1C(=O)N1CCC[C@H]1C(=O)N[C@@H](COC(C)(C)C)C(N)=O [H-A-P-P-P-S-NH2 HCl Form A, H-Ala-Pro-Pro-Pro-Ser(tBu)-NH2] (H-APPPS(tBu)-NH2) | loses crystallinity upon isolation/drying
8 | – | – | – | – | – | – | – | – | – | – | – | – | – | 1.4 wt % | CC(C)(C)OC(=O)CC[C@H](NC(=O)C(C)(C)NC(=O)[C@H](Cc1ccc(OC(C)(C)C)cc1)NC(=O)OC(C)(C)C)C(=O)NCC(=O)O [Y-Aib-E-G Form B, Boc-l-Tyr (tBu)-Aib-Glu(OtBu)-Gly-OH] (Boc-Y(tBu)[Aib]E(OtBu)G-OH) | –
9 | – | – | – | – | – | – | – | – | – | – | – | – | – | 4.1 wt % | CC(C)(C)OC(=O)CC[C@H](NC(=O)C(C)(C)NC(=O)[C@H](Cc1ccc(OC(C)(C)C)cc1)NC(=O)OC(C)(C)C)C(=O)NCC(=O)O [amorphous Y-Aib-E-G, Boc-l-Tyr (tBu)-Aib-Glu(OtBu)-Gly-OH] (Boc-Y(tBu)[Aib]E(OtBu)G-OH) | –

Row | Structure (SMILES) | Crystal Formed ([1]; solvent ACN) | Crystal Formed ([1]; solvent Acetone) | Crystal Formed ([1]; solvent BuOH) | Crystal Formed ([1]; solvent EtOAc) | Crystal Formed ([1]; solvent EtOH) | Crystal Formed ([1]; solvent H2O) | Crystal Formed ([1]; solvent IPA) | Crystal Formed ([1]; solvent MEK) | Crystal Formed ([1]; solvent MTBE) | Crystal Formed ([1]; solvent MeOH) | Crystal Formed ([1]; solvent THF) | Crystal Formed ([1]; solvent toluene) | physical stability of the crystalline form after vacuum drying ([2]; vacuum drying at 32-33° C. for 1 day) | wt % gain in sorption from 0% to 95% RH [3] | physical stability of the crystalline form [2]
10 | CC(C)(C)OC(=O)NC(Cc1ccc(OC(C)(C)C)cc1)C(=O)NC(C)(C)C(=O)NC(CCC(=O)OC1CCCCC1)C(=O)NCC(=O)O (stereo not drawn) [Boc—Y(tBu)-Aib-E(cHx)-G-COOH, Boc-Y(tBu)-Aib-E(cHx)-G-COOH] (Boc-Y(tBu)[Aib]E(OcHex)G-OH; configuration not given here) | No | No | No | No | No | No | No | No | No | No | No | No | – | – | –
